From US20240252488A1 (KOREA RESEARCH INSTITUTE OF CHEMICAL TECHNOLOGY, priority 2020, published 2024)

Columns and labels:
FADD−/− Jurkat cells = assay: Necroptosis inhibition assay, TNF-α-induced necroptosis (CellTiter-Glo 2.0); assay type: cell-based, human; settings: TNF-α 15 ng/mL; for Necroptosis inhibition assay (Rescue %) 1 μM: compound 1 μM; for Necroptosis inhibition assay (Rescue %) 10 μM: compound 10 μM
Summary of the method: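 Luminescent ATP measurement gave viability, from which cytotoxicity and necroptosis inhibition rate were derived. Before that, cells (5.0×10^5 cells/mL) saw compound at 0.1, 1 or 10 μM final for 30 minutes at room temperature, then TNF-α (15 ng/mL final) for 20 to 24 hours at 37° C.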

MLKL [1] = molecular target: T1, MLKL (Homo sapiens, UniProt Q8NB16); assay: Measurement of binding affinity with MLKL receptor (competitive binding assay, Kd); parameters: made in house; host or cells: HEK 293 cell line (T7 phage in E. coli BL21-derived host is also described)
T1 sequence (Q8NB16 1-471): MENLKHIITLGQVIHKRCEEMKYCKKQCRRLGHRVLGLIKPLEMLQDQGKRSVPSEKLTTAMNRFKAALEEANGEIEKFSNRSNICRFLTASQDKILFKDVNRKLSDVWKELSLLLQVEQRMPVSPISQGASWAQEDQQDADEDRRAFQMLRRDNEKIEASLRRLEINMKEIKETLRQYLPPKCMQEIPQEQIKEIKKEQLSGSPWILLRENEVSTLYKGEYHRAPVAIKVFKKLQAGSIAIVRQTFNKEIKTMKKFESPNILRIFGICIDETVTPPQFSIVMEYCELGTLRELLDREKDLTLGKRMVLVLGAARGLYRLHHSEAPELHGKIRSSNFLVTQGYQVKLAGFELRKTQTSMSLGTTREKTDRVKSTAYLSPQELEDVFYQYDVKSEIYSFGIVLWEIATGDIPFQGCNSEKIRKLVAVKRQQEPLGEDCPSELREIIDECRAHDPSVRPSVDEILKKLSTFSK
Summary of the method: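 MLKL was produced in HEK 293 cells and tagged with DNA for detection. Liganded beads were blocked with excess biotin and washed to cut non-specific binding, then compounds (111× DMSO stocks, 0.9% DMSO in assay) competed for binding. Eluate kinase was measured by qPCR for Kd.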

MLKL [2] = molecular target: T1, MLKL; assay: MLKL degradation assay in HepG2 cell line (western blot); assay type: cell-based; parameters: endogenous in cells; host or cells: HepG2 or HaCaT; settings: cell line not given; for Degradation assay (Degradation %) 1 μM: compound 1 μM; for Degradation assay (Degradation %) 10 μM: compound 10 μM
Experimental: MLKL degradation ability was evaluated in the following method.
1 mL of Human liver cancer cell line (HepG2 cell line) or human skin cell line (HaCaT cell line) was equally distributed into each well at 2.0×10^5 cells/mL in a 12-well cell culture plate. On the next day, the medium was replaced with a medium made so that the final concentration of test compound was 1 or 10 μM (1 mL/well), and incubated in 5% CO2, at 37° C. for 20-24 hours (Thermo scientific, Forma steri-cycle).
For protein preparation after incubation, cells were washed with 1×TBST, and 60 μL of RIPA lysis buffer containing Halt™ Protease and Phosphatase Inhibitor Cocktail was dispensed into each well. After scraping the cells with a scraper, the cells were recovered, and the pallet was homogenized and reacted on ice for 30 minutes. After the cells were centrifuged at 13,000 rpm, 10 minutes, 4° C., the supernatant was transferred to a new E-tube. For protein quantification, after dispensing sample and BCA (0-4 mg/ml) in a 96 well plate, 100 μL of BCA was dispensed and reacted in a 37° C. incubator for 30 minutes. After measuring the absorbance (SpectraMax, M5e, 562 nm), the amount of the sample was adjusted with the same concentration of protein and 4× Laemmli sample buffer, DW, and reacted at 100° C. for 5 minutes.
After assembling the MP TGX Precast Gel in the Mini-PROTEAN Tetra Cell, the same protein (10-15 μg) was added in an 8-10 μL volume per well, 1×Tris-Glycine Buffer was added, and loading was performed. After loading was completed, transfer was performed using Pierce G2 Fast Blotter and Pierce 1-Step Transfer Buffer. After completion of the transfer, 10 ml of SuperBlock™ Blocking Buffer was dispensed and reacted at room temperature for 10 minutes. 5% BSA containing the primary antibody was dispensed and reacted over night at 4° C. The next day, washing was performed three times with 1×TBST at room temperature for 10 minutes. 5% BSA containing the secondary antibody was dispensed and reacted at room temperature for 1 hour. Washing was performed three times with 1×TBST at room temperature for 10 minutes. The amount of protein expression was measured using chemiluminescence (LuminoGraph, ATTO).

Row | SMILES | Necroptosis inhibition assay (Rescue %) 1 μM (FADD−/− Jurkat cells) [%] | Necroptosis inhibition assay (Rescue %) 10 μM (FADD−/− Jurkat cells) [%] | Kd (MLKL [1]) [nM] | Degradation assay (Degradation %) 1 μM (MLKL [2]) [%] | Degradation assay (Degradation %) 10 μM (MLKL [2]) [%] | Necroptosis inhibition assay (Rescue %) 1 μM (FADD−/− Jurkat cells; FADD−/− Jurkat cells) [%] | Necroptosis inhibition assay (Rescue %) 10 μM (FADD−/− Jurkat cells; FADD−/− Jurkat cells) [%]
1 | Nc1ncc(-c2cnn(C3CCN(CCOCCNC(=O)CNc4cccc5c4C(=O)N(C4CCC(=O)NC4=O)C5=O)CC3)c2)nc1C(=O)O[C@@H](C(=O)Nc1ccc(F)cc1)c1ccccc1 (stereo partly drawn) [TDH-096, (R)-2-((4-fluorophenyl)amino)-2-oxo-1-phenylethyl 3-amino-6-(1-(1-(2-(2-(2-((2-(2,6-dioxopiperidin-3-yl)-1,3-dioxoisoindolin-4-yl)amino)acetamido)ethoxy)ethyl)piperidin-4-yl)-1H-pyrazol-4-yl)pyrazine-2-carboxylate] | 32.98 | 30.53 | 4 | 60.02 | 68.41 |  | 
2 | Nc1ncc(-c2cnn(C3CCN(CCCCCCCCCCNC(=O)C4CN(c5cccc6c5C(=O)N(C5CCC(=O)NC5=O)C6=O)C4)CC3)c2)nc1C(=O)O[C@@H](C(=O)Nc1ccc(F)cc1)c1ccccc1 (stereo partly drawn) [TDH-158, (R)-2-((4-fluorophenyl)amino)-2-oxo-1-phenylethyl 3-amino-6-(1-(1-(10-(1-(2-(2,6-dioxopiperidin-3-yl)-1,3-dioxoisoindolin-4-yl)azetidine-3-carboxamido)decyl)piperidin-4-yl)-1H-pyrazol-4-yl)pyrazine-2-carboxylate] |  |  | 35 | 49.22 | 39.81 |  | 
3 | Nc1ncc(-c2cnn(C3CCN(CC4CCN(C(=O)CNc5cccc6c5C(=O)N(C5CCC(=O)NC5=O)C6=O)CC4)CC3)c2)nc1C(=O)N[C@@H](C(=O)Nc1ccc(F)cc1)c1ccccc1 (stereo partly drawn) [TDH-206, 3-amino-6-(1-(1-((1-((2-(2,6-dioxopiperidin-3-yl)-1,3-dioxoisoindolin-4-yl)glycyl)piperidin-4-yl)methyl)piperidin-4-yl)-1H-pyrazol-4-yl)-N-((R)-2-((4-fluorophenyl)amino)-2-oxo-1-phenylethyl)pyrazine-2-carboxamide] |  |  | 240 | 21.78 | 14.94 |  | 
4 | Nc1ncc(-c2cnn(C3CCN(CCOCCOCCNC(=O)CNc4ccc5c(c4)C(=O)N(C4CCC(=O)NC4=O)C5=O)CC3)c2)nc1C(=O)N[C@@H](C(=O)Nc1ccc(F)cc1)c1ccccc1 (stereo partly drawn) [TDH-218, 3-amino-6-(1-(1-(2-(2-(2-(2-((2-(2,6-dioxopiperidin-3-yl)-1,3-dioxoisoindolin-5-yl)amino)acetamido)ethoxy)ethoxy)ethyl)piperidin-4-yl)-1H-pyrazol-4-yl)-N-((R)-2-((4-fluorophenyl)amino)-2-oxo-1-phenylethyl)pyrazine-2-carboxamide] | 27.92 | 40.68 | 46 |  |  |  | 
5 | Nc1ncc(-c2cn(C3CCN(CC4CCN(C(=O)C5CCN(c6ccc7c(c6)C(=O)N(C6CCC(=O)NC6=O)C7=O)CC5)CC4)CC3)nn2)nc1C(=O)OC(C(=O)Nc1ccc(F)cc1)c1ccccc1 (stereo not shown) [TDH-221, 2-((4-fluorophenyl)amino)-2-oxo-1-phenylethyl 3-amino-6-(1-(1-((1-(1-(2-(2,6-dioxopiperidin-3-yl)-1,3-dioxoisoindolin-5-yl)piperidine-4-carbonyl)piperidin-4-yl)methyl)piperidin-4-yl)-1H-1,2,3-triazol-4-yl)pyrazine-2-carboxylate] | 53.65 | 54.23 | 27 |  |  |  | 
6 | Nc1ncc(-c2ccc(N3CCN(CC4CCN(C(=O)C5CCN(c6cccc7c6C(=O)N(C6CCC(=O)NC6=O)C7=O)CC5)CC4)CC3)nc2)nc1C(=O)OC(C(=O)Nc1ccc(F)cc1)c1ccccc1 (stereo not shown) [TDH-230, 2-((4-fluorophenyl)amino)-2-oxo-1-phenylethyl 3-amino-6-(6-(4-((1-(1-(2-(2,6-dioxopiperidin-3-yl)-1,3-dioxoisoindolin-4-yl)piperidine-4-carbonyl)piperidin-4-yl)methyl)piperazin-1-yl)pyridin-3-yl)pyrazine-2-carboxylate] | 7.4 | 10.64 | 140 |  |  |  | 
7 | Nc1ncc(-c2ccc(N3CCN(CC4CCN(C(=O)C5CCN(c6ccc7c(c6)C(=O)N(C6CCC(=O)NC6=O)C7=O)CC5)CC4)CC3)nc2)nc1C(=O)OC(C(=O)Nc1ccc(F)cc1)c1ccccc1 (stereo not shown) [TDH-231, 2-((4-fluorophenyl)amino)-2-oxo-1-phenylethyl 3-amino-6-(6-(4-((1-(1-(2-(2,6-dioxopiperidin-3-yl)-1,3-dioxoisoindolin-5-yl)piperidine-4-carbonyl)piperidin-4-yl)methyl)piperazin-1-yl)pyridin-3-yl)pyrazine-2-carboxylate] | 15.47 | 11.4 | 140 |  |  |  | 
8 | Nc1ncc(-c2ccc(N3CCN(CC4CCN(C(=O)CNc5cccc6c5C(=O)N(C5CCC(=O)NC5=O)C6=O)CC4)CC3)nc2)nc1C(=O)OC(C(=O)Nc1ccc(F)cc1)c1ccccc1 (stereo not shown) [TDH-232, 2-((4-fluorophenyl)amino)-2-oxo-1-phenylethyl 3-amino-6-(6-(4-((1-((2-(2,6-dioxopiperidin-3-yl)-1,3-dioxoisoindolin-4-yl)glycyl)piperidin-4-yl)methyl)piperazin-1-yl)pyridin-3-yl)pyrazine-2-carboxylate] | 3.46 |  | 260 |  |  |  | 
9 | Nc1ncc(-c2ccc(N3CCN(CCOCCOCCNC(=O)CNc4cccc5c4C(=O)N(C4CCC(=O)NC4=O)C5=O)CC3)nc2)nc1C(=O)OC(C(=O)Nc1ccc(F)cc1)c1ccccc1 (stereo not shown) [TDH-259, 2-((4-fluorophenyl)amino)-2-oxo-1-phenylethyl 3-amino-6-(6-(4-(2-(2-(2-(2-((2-(2,6-dioxopiperidin-3-yl)-1,3-dioxoisoindolin-4-yl)amino)acetamido)ethoxy)ethoxy)ethyl)piperazin-1-yl)pyridin-3-yl)pyrazine-2-carboxylate] |  |  | 50 | 18.61 | 30.36 |  | 
10 | Nc1ncc(-c2cnn(C3CCN(C(=O)CCCCCC#Cc4cccc5c4CN(C4CCC(=O)NC4=O)C5=O)CC3)c2)nc1C(=O)O[C@@H](C(=O)Nc1ccc(F)cc1)c1ccccc1 (stereo partly drawn) [TDH-423, (R)-2-((4-fluorophenyl)amino)-2-oxo-1-phenylethyl 3-amino-6-(1-(1-(8-(2-(2,6-dioxopiperidin-3-yl)-1-oxoisoindolin-4-yl)oct-7-ynoyl)piperidin-4-yl)-1H-pyrazol-4-yl)pyrazine-2-carboxylate] |  |  | 9.8 | 61.54 | 39.01 |  | 
11 | Nc1ncc(-c2cnn(C3CCN(CCCN4CCN(C(=O)CNc5ccc6c(c5)C(=O)N(C5CCC(=O)NC5=O)C6=O)CC4)CC3)c2)nc1C(=O)N[C@@H](C(=O)Nc1ccc(F)cc1)c1ccccc1 (stereo partly drawn) [TDH-493, 3-amino-6-(1-(1-(3-(4-((2-(2,6-dioxopiperidin-3-yl)-1,3-dioxoisoindolin-5-yl)glycyl)piperazin-1-yl)propyl)piperidin-4-yl)-1H-pyrazol-4-yl)-N-((R)-2-((4-fluorophenyl)amino)-2-oxo-1-phenylethyl)pyrazine-2-carboxamide] |  |  | 91 |  |  | 1.49 | −3.98
